Read-outs that look alike come from different tables or passages of the source.
Legend:
[1] = test system: HCT-116; assay: MTT cytotoxicity assay, colon cancer cells; type: cell-based, human; details: for SI: Selectivity Index from IC50 normal (VERO-B) and IC50 cancer (HCT-116)
Protocol: (§1) The cytotoxic activity of the compounds was tested against different mammalian cancer cells, prostate carcinoma cells (PC-3), hepatocellular carcinoma (HepG2) and colon cancer cells (HCT-116) and against African green monkey kidney cell line (Vero-B). The cell lines were obtained from American Type Culture Collection (ATCC). The cells were cultivated at 37° C. and 10% CO2 in DMEM (Lonza, 12-604F) medium supplemented with 10% fetal bovine serum (FBS, Lonza, Cat. No. 14-801E), 100 IU/ml penicillin and 100 μg/ml streptomycin (Lonza, 17-602E). Cisplatin (cis-diamineplatinum (II) dichloride) was used as a positive control and was obtained from Sigma then dissolved in 0.9% saline then stored as 8 mM stock solution at −20° C. The synthesized compounds were solubilized in DMSO and stored at −20° C. 0.5% crystal violet was prepared in Methanol and was used to stain the viable cells (Feoktistova, Geserick et al. 2016). Crystal violet binds to proteins and DNA in the adherent and viable cells so the stain is an indicator for the viability of the treated cells. The viability of the cells were quantified by using MTT reagent (3-(4,5-dimethylthiazol-2-yl)-2,5-diphenyl tetrazolium bromide), which measure the activity of mitochondrial dehydrogenase in the viable cells (Slater, Sawyer et al. 1963, Mosmann 1983).
(§2) Cytotoxicity was further assayed as follows. The cells were seeded in 96-well plate as 5*10^4 cells/mL (100 μL/well). A serial dilutions of tested compounds or cisplatin (100, 30, 10, 3.3, 1.1 or 0.37 μM) was added after overnight incubation of the cells at 37° C. and 5% CO2. DMSO was used as a control (0.1%). The cells were incubated for 48 hrs. After that, 15 μl of MTT (5 mg/mL PBS) was added to each well and incubated for another 4 hours. The formazan crystals were solubilized by 100 μL acidified SDS solution (10% SDS/0.01 M HCl). The absorbance was measured after 14 hours of incubation at 37° C. and 5% CO2 at 570 nm by Biotech plate reader. Each experiment was repeated three times and standard deviation was calculated (±). IC50% was calculated as the concentration that cause 50% inhibition for cell growth. The growth of the cells were monitored and the images were acquired by Gx microscopes (GXMGXD202 Inverted Microscope) (10× Eyepiece) after staining with crystal violet.

[2] = test system: HepG2; assay: MTT cytotoxicity assay, hepatocellular carcinoma cells; type: cell-based, human; details: for SI: Selectivity Index from IC50 normal (VERO-B) and IC50 cancer (HepG2)
Protocol: as §1, §2

[3] = test system: PC-3; assay: MTT cytotoxicity assay, prostate carcinoma cells; type: cell-based, human; details: for SI: Selectivity Index from IC50 normal (VERO-B) and IC50 cancer (PC-3)
Protocol: as §1, §2

[4] = test system: Vero-B; assay: MTT cytotoxicity assay, normal kidney cell line; type: cell-based, African green monkey; details: MTT, 48 hrs incubation, read-out: VERO-B (IC50% μM)
Protocol: as §1, §2

[5] = Homo sapiens, HCT-116, MTT, 48 hrs incubation, read-out: HCT-116 (IC50% μM)
[6] = Homo sapiens, HCT-116, MTT, 48 hrs incubation, read-out: HCT-116 (IC50% μg/ml)
[7] = Homo sapiens, HepG2, MTT, 48 hrs incubation, read-out: HepG2 (IC50% μM)
[8] = Homo sapiens, HepG2, MTT, 48 hrs incubation, read-out: HepG2 (IC50% μg/ml)
[9] = Homo sapiens, PC-3, MTT, 48 hrs incubation, read-out: PC-3 (IC50% μM)
[10] = Homo sapiens, PC-3, MTT, 48 hrs incubation, read-out: PC-3 (IC50% μg/ml)
[11] = Chlorocebus sabaeus, Vero B, Table 1

| SMILES | HCT-116 (IC50% μg/ml) ([1]; MTT, 48 hrs incubation) [µg/mL] | IC50 ([1]; MTT, 48 hrs incubation, read-out: HCT-116 (IC50% μM)) [µM] | SI [1] | HepG2 (IC50% μg/ml) ([2]; MTT, 48 hrs incubation) [µg/mL] | IC50 ([2]; MTT, 48 hrs incubation, read-out: HepG2 (IC50% μM)) [µM] | SI [2] | PC-3 (IC50% μg/ml) ([3]; MTT, 48 hrs incubation) [µg/mL] | IC50 ([3]; MTT, 48 hrs incubation, read-out: PC-3 (IC50% μM)) [µM] | SI [3] | IC50 ([4]; Table 1) [µM] | IC50 ([4]; Table 2) [µM] | IC50 ([4]; Table 3) [µM] | IC50 [1, 5] [µM] | IC50 [1, 6] [µg/mL] | IC50 [2, 7] [µM] | IC50 [2, 8] [µg/mL] | IC50 [3, 9] [µM] | IC50 [3, 10] [µg/mL] | IC50 [4, 11] [µM] |
| --- | --- | --- | --- | --- | --- | --- | --- | --- | --- | --- | --- | --- | --- | --- | --- | --- | --- | --- | --- |
| N.N.[Cl][Pt][Cl] [Cisplatin, cis-diamineplatinum (II) dichloride, reference compound] | 3.8 | 12.6 ± 2 | 0.3968 | 1.7 | 5.5 ± 1 | 0.9091 | 1.5 | 5 ± 0.5 | 1 | 5 | 5 | 5 |  |  |  |  |  |  |  |
| O=C(/C=C/c1ccc(Cl)cc1)[C@H]1[C@H](c2ccc(Cl)cc2)[C@H]2CSCN2[C@]12C(=O)Nc1ccccc12 [Compound 4c, (3R,6′S,7′R,7a′S)-7′-(4-chlorophenyl)-6′-((E)-3-(4-chlorophenyl)acryloyl)-1′,6′,7′,7a′-tetrahydro-3′H-spiro[indoline-3,5′-pyrrolo[1,2-c]thiazol]-2-one] |  |  |  |  |  | 3.5 |  |  | 2.593 |  |  |  | 3 ± 0.5 | 1.6 | 2 ± 0.5 | 1 | 2.7 ± 0.4 | 1.4 | 7 |
| O=C(/C=C/c1ccc2ccccc2c1)[C@H]1[C@H](c2ccc3ccccc3c2)[C@H]2CSCN2[C@]12C(=O)Nc1ccccc12 [Compound 4i, (3R,6′S,7′R,7a′S)-7′-(naphthalen-2-yl)-6′-((E)-3-(naphthalen-2-yl)acryloyl)-1′,6′,7′,7a′-tetrahydro-3′H-spiro[indoline-3,5′-pyrrolo[1,2-c]thiazol]-2-one] |  |  | 0.875 |  |  | 2.917 |  |  | 2.414 |  |  |  | 8 ± 0.3 | 4.4 | 2.4 ± 1 | 1.3 | 2.9 ± 0.2 | 1.6 | 7 |
| O=C(/C=C/c1cccc(Br)c1)[C@H]1[C@H](c2cccc(Br)c2)[C@H]2CSCN2[C@]12C(=O)Nc1ccccc12 [Compound 4l, (3R,6′S,7′R,7a′S)-7′-(3-bromophenyl)-6′-((E)-3-(3-bromophenyl)acryloyl)-1′,6′,7′,7a′-tetrahydro-3′H-spiro[indoline-3,5′-pyrrolo[1,2-c]thiazol]-2-one] |  |  | 1.911 |  |  | 3.333 |  |  | 2 |  |  |  | 1.57 ± 0.3 | 0.95 | 0.9 ± 0.1 | 0.5 | 1.5 ± 0.5 | 0.9 | 3 |
| O=C(/C=C/c1ccc(F)cc1)[C@H]1[C@H](c2ccc(F)cc2)[C@H]2CSCN2[C@]12C(=O)Nc1ccccc12 [Compound 4m, (3R,6′S,7′R,7a′S)-7′-(4-fluorophenyl)-6′-((E)-3-(4-fluorophenyl)acryloyl)-1′,6′,7′,7a′-tetrahydro-3′H-spiro[indoline-3,5′-pyrrolo[1,2-c]thiazol]-2-one] |  |  | 1.2 |  |  | 2.5 |  |  | 2.4 |  |  |  | 5 ± 0.3 | 2.4 | 2.4 ± 0.4 | 1.2 | 2.5 ± 0.2 | 1.2 | 6 |
| O=C(/C=C/c1ccc(C(F)(F)F)cc1)[C@H]1[C@H](c2ccc(C(F)(F)F)cc2)[C@H]2CSCN2[C@]12C(=O)Nc1ccccc12 [Compound 4n, (3R,6′S,7′R,7a′S)-7′-(4-(trifluoromethyl)phenyl)-6′-((E)-3-(4-(trifluoromethyl)phenyl)acryloyl)-1′,6′,7′,7a′-tetrahydro-3′H-spiro[indoline-3,5′-pyrrolo[1,2-c]thiazol]-2-one] |  |  | 0.8621 |  |  | 2.778 |  |  | 2.5 |  |  |  | 2.9 ± 0.4 | 1.7 | 0.9 ± 0.2 | 0.5 | 1 ± 0.2 | 0.6 | 2.5 |
| O=C(/C=C/c1ccc(F)cc1)[C@H]1[C@H](c2ccc(F)cc2)[C@H]2CSCN2[C@]12C(=O)Nc1ccc(Br)cc12 [Compound 4p, (3R,6′S,7′R,7a′S)-5-bromo-7′-(4-fluorophenyl)-6′-((E)-3-(4-fluorophenyl)acryloyl)-1′,6′,7′,7a′-tetrahydro-3′H-spiro[indoline-3,5′-pyrrolo[1,2-c]thiazol]-2-one] |  |  | 0.9571 |  |  | 3.75 |  |  | 2 |  |  |  | 3.5 ± 0.3 | 2 | 0.8 ± 0.1 | 0.5 | 1.5 ± 0.1 | 0.8 | 3 |

— US9822128B1, “Substituted spirooxindoles” (KING SAUD UNIVERSITY, priority 2017, dated 2017)
